Reference: article PMC10178864, “Identification, Baculoviral Expression, and Biochemical Characterization of a Novel Cholinesterase of Amblyomma americanum (Acari: Ixodidae)” (International Journal of Molecular Sciences, 2023)
Like-named read-outs stand apart in the source and are kept apart here.

Columns and labels:
[1] = molecular target: T1, rAaChE1 (recombinant AaChE1, A. americanum cholinesterase 1); assay: cholinesterase inhibition assay, absorbance at […] nm; format: biochemical, Amblyomma americanum; set-up: unit not given here; conditions: 15 min preincubation, culture supernatant
T1 construct: pBlueBac4.5/V5-His in Sf21 cells (reverse primer appears to carry the native stop codon); unpurified culture supernatant

[2] = system: T1, rAaChE1 (recombinant AaChE1, A. americanum cholinesterase 1); assay: cholinesterase assay, absorbance at […] nm, microplate; format: biochemical, Amblyomma americanum; conditions: culture supernatant of baculovirus-infected Sf21 cells

## CCOC(=O)CC(SP(=O)(OC)OC)C(=O)OCC (stereo not shown) [Malaoxon]
[1]; covalent
  (IC50) ^2 / rAaChE1 (ATCh Substrate): 2.77 × 10^−8 (2.45–3.14 × 10^−8)

## C=CC[N+](C)(C)c1ccc(CCC(=O)CCc2ccc([N+](C)(C)CC=C)cc2)cc1 [BW284c51, 1,5-Bis(4-allyldimethylammoniumphenyl)pentan-3-one dibromide]
[1]
  (IC50) ^2 / rAaChE1 (ATCh Substrate): 2.96 × 10^−7 (2.50–3.50 × 10^−7)

## CNC(=O)Oc1ccc2c(c1)[C@]1(C)CCN(C)[C@@H]1N2C [Eserine]
[1]; covalent
  (IC50) ^2 / rAaChE1 (ATCh Substrate): 2.28 × 10^−10 (2.37–3.26 × 10^−10)

## CC(C)NP(=O)(NC(C)C)OP(=O)(NC(C)C)NC(C)C [Iso-OMPA]
[1]; covalent
  (IC50) ^2 / rAaChE1 (ATCh Substrate): 3.48 × 10^−05 (2.76–4.43 × 10^−5)

## CC(=O)SCC[N+](C)(C)C [ATCh, acetylthiocholine]
[2]; read-out: KM
  Km: 6.39 µM

## CCCC(=O)SCC[N+](C)(C)C [BuTCh, butyrylthiocholine]
[2]; read-out: apparent KM
  Km: 14.2 µM

## CCOP(=O)(OCC)Oc1ccc2c(C)c(Cl)c(=O)oc2c1 [Coroxon]
[1]; covalent
  (IC50) ^2 / rAaChE1 (ATCh Substrate): 2.35 × 10^−11 (1.93–2.84 × 10^−11)
